Measured values taken from patent US20260151410A1, “Tetrahydronaphthyridine Derivatives, Medicine Prepared Therefrom, and Applications Thereof in Preventing and Treating Adhesion-related Diseases” (SCINNOHUB PHARMACEUTICAL CO., LTD, priority 2022, published 2026).
Like-named read-outs stand apart in the source and are kept apart here.

Assays:
TACE(ADAM17) = TACE(ADAM17) (Homo sapiens, UniProt P78536); assay: Inhibition of recombinant human protease TACE, fluorescence assay; type: biochemical
Protocol: (§1) The purpose is to determine the inhibitory activity of the compounds of the present disclosure on recombinant human proteases Trypsin, MMP9, and TACE.
(§2) • Trypsin: 100 mM Tris-HCl, 75 mM NaCl, 2.5 mM CaCl2, 10 mM Cysteine, pH 7.5 • MMP9: 50 mM Tris, 10 mM CaCl2), 150 mM NaCl, 0.05% Brij-35 (w/v), pH7.5 • TACE: 25 mM Tris, 2.5 μM ZnCl2, 0.005% Brij-35 (w/v), pH 9.0 […]
(§3) The inhibitory effect of the compounds of the present disclosure on the above three proteases was determined by the above test, and the measured IC50 values were as follows.

[1] = test system: total proteases in the homogenate of the jejunal segment of the small intestine of rats; assay: Inhibition of total proteases in rat small intestine (jejunum) homogenate, fluorescent protease activity kit; type: biochemical; details: ΔRFU within 30 minutes
Description: The purpose is to determine the inhibitory activity of the compounds of the present disclosure on total proteases in the homogenate of the jejunal segment of the small intestine of rats.
• a) Preparation of rat intestinal homogenate and protein quantification • i. Tissue sampling: The experimental animals were anesthetized and bled to death. The small intestine was folded in half from the ileocecal junction to the duodenum at the lower end of the stomach, and the jejunum in the middle with a size of about 4 cm was taken; after washing with a 0.9% sodium chloride solution, it was quickly frozen in liquid nitrogen and then transferred to −80° C. for storage; • ii. […] The total protein of the homogenate was quantified using the BCA protein concentration assay kit according to the instructions. • b) Inhibitory activity test of compound • i. […]
• v. […] The fluorescence signals at FI=Ex 485/Em 520 nm were detected continuously within 30 minutes (once every 5 minutes) using a kinetic mode. • c) Data analysis
The difference between fluorescence signals within 30 minutes was calculated and recorded as ΔRFU. […]
The inhibitory effect of the compounds of the present disclosure on the total proteases in the rat small intestine homogenate was determined by the above test, and the measured IC50 values were as follows.

MMP9 = MMP9 (Homo sapiens, UniProt P14780); assay: Inhibition of recombinant human protease MMP9, fluorescence assay; type: biochemical
Protocol: as §1, §2, §3

[2] = test system: postoperative intra-abdominal adhesions; details: for extent (and locations) of intra-abdominal adhesions compared with the model group: rats, single gavage 12 mL/kg 2 hours before operation, 7 days after operation
Protocol: Seventy male SPF SD rats, 220±20 g each, were purchased from Beijing Vital River Experimental Animal Technology Co., Ltd. After 2 weeks of adaptive feeding in the laboratory, the animals were numbered by ear tags and randomized into 7 groups, with […] in each group.
The positive drug was tranexamic acid (TXA).
An amount of the positive drug tranexamic acid (TXA) was weighed and added with the electrolyte solution to prepare 64 mM and 21 mM solutions.
The animals were given a single dose at 12 mL/kg by oral gavage 2 hours before the laparotomy operation. The animals in the sham operation group and the model group were given the solvents.
The animals were fasted but water was given before the operation (>12 hours). The abdomen was locally depilated after inhalation anesthesia and disinfected with iodophor solution. An incision with the size of 3 cm was made in the midline area of the abdomen of the experimental animal using a scalpel, and the cecum was taken out. The serosal layer on each side of the ileocecal region was repeatedly rubbed with sterile gauze until there were needle-like bleeding points on the surface, forming a damaged wound inside and outside of the cecum. The cecum was returned back to the abdominal cavity. The abdominal cavity was closed, sutured layer by layer with surgical sutures, and disinfected. The entire operation should be performed aseptically. The experimental operations were carried out for 4 animals in each group. In the sham operation group, the animal's abdomens were opened only without damaging the cecum.
The animals were dissected and observed 7 days after the operation.
The intestinal adhesions were scored using the Phillips grading method.

[3] = test system: postoperative intestinal adhesions; assay: Abdominal adhesion model by the file method (cecal friction), Phillips grading; type: in vivo, SD rats; details: rats; gavage 2% solution 12 mL/kg 2 hours before operation + peritoneal irrigation 1% solution 2 mL/animal; 7th day after operation
Description: • 3.1 Experimental animals: The male SPF SD rats (220 g each) were purchased from the Experimental Animal Center of Hangzhou Medical College and passed the inspection of Zhejiang Provincial Experimental Animal Quality Supervision and Inspection Station. […] The solvent used for intragastric administration was compound polyethylene glycol electrolyte solution; the solvent used for irrigation administration was sterile saline solution. • 3.3 Preparation of solvent: One bag of compound polyethylene glycol electrolyte solution (68.56 g) was dissolved in 1 L of pure water, and is further added with 44 g of glucose (containing water) to make the glucose content of 4% (w/v) in the solvent. The prepared solvent was stored at 2-8° C. and used within one week. • 3.4 Preparation of intragastric solution: An amount of test sample was weighed and added with an appropriate amount of sterile ultrapure water to prepare a 20% (w/v) stock solution, then an equivalent amount of NaOH was added to adjust the pH to neutral until completely dissolved (the pH value was measured). […]

Chain of TACE(ADAM17) (P78536 215-824): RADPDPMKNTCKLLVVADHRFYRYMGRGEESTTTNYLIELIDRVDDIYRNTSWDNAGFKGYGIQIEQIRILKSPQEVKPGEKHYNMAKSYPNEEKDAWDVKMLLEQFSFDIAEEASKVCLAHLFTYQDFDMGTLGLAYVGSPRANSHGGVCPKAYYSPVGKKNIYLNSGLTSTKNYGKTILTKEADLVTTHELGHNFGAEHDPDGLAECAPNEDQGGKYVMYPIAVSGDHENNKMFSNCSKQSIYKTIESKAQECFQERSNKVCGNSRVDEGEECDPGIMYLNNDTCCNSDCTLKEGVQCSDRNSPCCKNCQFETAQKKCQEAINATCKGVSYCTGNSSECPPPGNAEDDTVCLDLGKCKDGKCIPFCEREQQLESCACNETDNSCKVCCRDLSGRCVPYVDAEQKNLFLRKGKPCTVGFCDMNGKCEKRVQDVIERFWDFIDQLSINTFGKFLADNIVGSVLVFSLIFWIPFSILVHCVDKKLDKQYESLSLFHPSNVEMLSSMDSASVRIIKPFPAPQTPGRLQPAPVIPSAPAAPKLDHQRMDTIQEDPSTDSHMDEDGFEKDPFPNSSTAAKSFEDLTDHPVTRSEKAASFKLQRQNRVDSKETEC
Chain of MMP9 (P14780 94-707): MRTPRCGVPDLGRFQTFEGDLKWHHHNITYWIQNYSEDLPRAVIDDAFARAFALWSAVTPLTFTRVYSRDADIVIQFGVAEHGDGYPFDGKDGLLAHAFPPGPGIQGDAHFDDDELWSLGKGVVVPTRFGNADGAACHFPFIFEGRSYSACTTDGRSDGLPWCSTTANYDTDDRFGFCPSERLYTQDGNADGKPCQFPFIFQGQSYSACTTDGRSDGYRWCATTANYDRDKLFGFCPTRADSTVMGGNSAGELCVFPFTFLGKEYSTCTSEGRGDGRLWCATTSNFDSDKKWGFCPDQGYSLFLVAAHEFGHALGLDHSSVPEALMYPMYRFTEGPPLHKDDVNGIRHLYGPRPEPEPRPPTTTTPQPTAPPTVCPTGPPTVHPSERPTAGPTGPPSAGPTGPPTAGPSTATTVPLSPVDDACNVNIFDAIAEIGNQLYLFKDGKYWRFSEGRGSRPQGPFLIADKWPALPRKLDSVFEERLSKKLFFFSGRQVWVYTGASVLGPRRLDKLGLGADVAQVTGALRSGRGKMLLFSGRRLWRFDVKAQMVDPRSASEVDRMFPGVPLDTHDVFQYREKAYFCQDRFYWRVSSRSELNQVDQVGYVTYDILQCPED

Cl.O=C(O)c1ccc2c(n1)CCNC2 [Preparative example 1, 5,6,7,8-tetrahydro-1,6-naphthyridine-2-carboxylic acid hydrochloride]
IC50 (TACE(ADAM17); recombinant human TACE 0.2 μg/mL, substrate 20 μM, room temperature 30 minutes, read-out: IC50 TACE(ADAM17)): 5.43 mM | IC50 [1]: 13.4 mM | IC50 (MMP9; recombinant human MMP9 0.2 μg/mL, substrate 10 μM, room temperature 30 minutes, read-out: IC50 MMP9): 6.56 mM | extent (and locations) of intra-abdominal adhesions compared with the model group ([2]; 21 mM solution): reduced | extent (and locations) of intra-abdominal adhesions compared with the model group ([2]; 64 mM solution): reduced significantly

Cl.O=P(O)(O)c1ccc2c(n1)CCNC2 [Preparative example 2, (5,6,7,8-tetrahydro-1,6-naphthyridin-2-yl) phosphonic acid hydrochloride]
IC50 (TACE(ADAM17)): 7.38 mM | IC50 [1]: 17.9 mM | animals with quantity and extent of intestinal adhesions significantly improved compared with the model group [3]: more than 80% | IC50 (MMP9): ~25 mM | extent (and locations) of intra-abdominal adhesions compared with the model group ([2]; 64 mM solution): improved to a certain extent

NC[C@H]1CC[C@H](C(=O)O)CC1 [tranexamic acid, reference compound]
animal deaths after the operation ([2]; rat, in vivo): one animal died | extent (and locations) of intra-abdominal adhesions compared with the model group ([2]; 21 mM solution): exhibited an alleviating trend | extent (and locations) of intra-abdominal adhesions compared with the model group ([2]; 64 mM solution): significantly alleviated
